{"source": "patent US9974743B2", "about": "“Device and method for delivery of a medicament” (Philip Morris Products S.A., priority 2009, dated 2018)", "origin": "cited, not measured here", "conditions": "25° C.", "data": [{"smiles": "CN1CCCC1c1cccnc1", "note": "(stereo not shown) [Nicotine Control, Nicotine]", "values": [{"measurement": "vapor pressure", "result": 0.04, "unit": "mm Hg"}]}]}
